Ends that are not written are not given here.
Experiments:
[1] = system: SD rats with CCl4-induced hepatic fibrosis; test: CCl4-induced hepatic fibrosis animal model; assay type: in vivo; settings: CCl4 8 weeks, polypeptides 6 mg/kg s.c. once a day, colchicine intragastric 5 times/week
Description: Source and strain: SPF level, SD rats, provided by Shanghai Xipuer-Bikai laboratory Animal Co., Ltd. (laboratory animal license: SCXK (hu) 2013-0016)
There were 10 rats in each group. Modeling was performed on the rats. Each group other than the blank group was injected with 40% CCl4 intraperitoneally twice a week, the first injection was performed at 3 mL/kg, and then administration was performed at 2 mL/kg. Administration was performed for 8 weeks, and a total of 16 injections were provided to induce hepatic fibrosis. After the intraperitoneal injection of CCl4 for the fourth time, polypeptide therapy was started on the next day, and administration was performed by subcutaneous injection once a day until the end of induction. After the intraperitoneal injection of CCl4 for the fourth time, colchicine was administrated on the next day at 200 μg/kg, 5 times a week, and intragastric administration therapy was implemented. After induction for 8 weeks, the administration was stopped. On the second day, the SD rats were dissected, blood was taken, and the liver tissue was taken and stored in a refrigerator at −80° C. for later use. The expressions of AST and ALT in serum and HYP in the rat liver tissue were detected.

[2] = system: SD rats with bleomycin-induced pulmonary fibrosis; test: Bleomycin-induced pulmonary fibrosis animal model; assay type: in vivo; settings: for Survival rate (%): bleomycin 5 mg/kg intratracheal, polypeptides 10 mg/kg subcutaneous twice a day for 14 days, positive drug Nintedanib intragastric once a day, model group 57.1%; for content of HYP in lung tissues, difference from model group / content of TGF-β1 in serum, difference from model group: polypeptides 10 mg/kg s.c. twice a day, Nintedanib 25 mg/kg intragastric once a day, 14 days
Description: Source and strain: clean SD rats, provided by Comparative Medicine Center of Yangzhou University (laboratory animal production license: SCXK (Su) 2012-0004); Certification of Using of Laboratory Animal: SYXK (Su) 2012-0035).
SD rats were anesthetized by intraperitoneal injection of 1 mL/100 g 4% chloral hydrate. After anesthesia, the rats were fixed and their necks were disinfected by using cotton with 75% alcohol. The skin of the rat neck was longitudinally cut with scissors, and the fascia and muscle were longitudinally bluntly torn with tweezers to expose the trachea. A syringe was inserted into the trachea to inject 5 mg/kg bleomycin, while a blank group was injected with an equal amount of normal saline. Then a rat plate was quickly erected and rotated, the rats' breathing was observed, the neck wound was sterilized after rotation and was sewn, and an amoxicillin anti-inflammatory drug was sprinkled on the suture. After the operation, the rats were put back into a dry and clean cage for resting, waiting was performed for awakening. The rats were awakened after about 1-2 hours, and then fed normally. On the 7th day after modeling, modeling group animals randomly fell into a model group, a Nintedanib positive drug group, polypeptide I, II, III and IV dosage groups, and a normal control group, and the groups were administered separately for an administration cycle of 14 days. Living situations of rats were observed every day and their weights were weighed. After administration for 14 days, the eyeballs were removed and blood was taken, the rats were dissected, and lungs were taken. The content of TGF-β1 in serum and the content of HYP in lung tissues were detected.

[3] = system: Streptococcus pneumoniae; test: Mouse pneumonia model, bacterial pneumonia; assay type: in vivo, BALB/C mice; design: unit not given here; settings: nasal drip, average values + standard deviation
Excerpt: (§1) A mouse pneumonia model was successfully established by using a nasal drip method. BALB/C mice with a body weight of 18-24 g were selected, and then anesthetized with ether on day 0, day 1 and day 2, respectively, prepared Streptococcus pneumoniae bacteria solution, adenovirus concentrated solution, Mycoplasma pneumoniae, Chlamydia pneumoniae, protozoa and pneumonia fungi were slowly dropped into the nasal cavity of the mice, so that the bacteria solutions entered the trachea and bronchi, and the bacteria solutions were prevented from flowing into the esophagus during the operation to avoid inactivation of the bacteria solutions, so that the mouse pneumonia model was established. After the model was successfully established, the polypeptide according to the present disclosure was administered, as shown in FIG. 9 and Table 7. […] The experimental results are represented on the basis of average values+standard deviation.

[4] = system: mice with myocardial fibrosis; test: Isoprenaline-induced myocardial fibrosis model; assay type: in vivo; settings: BALB/c mice, isoprenaline 5 mg/kg 7 days; 12 mg/kg s.c. twice a day
Description: 1. Experimental Mice: 10-Week-Old Male BALB/c Mice (with an Average Weight of 20 g).
In the model group, the experimental mice were injected with isoprenaline (ISO) (5 mg/kg) subcutaneously on the back of the mice every day for 7 consecutive days, and the mice were injected with normal saline subcutaneously (200 μL/mouse) every day. In the blank group, normal saline was injected subcutaneously (200 μL/mouse) every day. While a model was made, polypeptide drugs were administrated for treatment by subcutaneous injection. After the 8th day, blood was taken and was centrifuged, the supernatant was taken, and the content of TGF-β1 in serum was detected.

[5] = system: mice with skin fibrosis; test: Bleomycin-induced skin fibrosis model; assay type: in vivo, C57/BL black mice; settings: C57/BL mice, bleomycin s.c. 28 days; 10 mg/kg s.c. twice a day
Description: Male C57/BL black mice aged 6-8 weeks, purchased from Nanjing Qinglong Mountain Animal Farm. Bleomycin (10 μg/mL) was injected subcutaneously every day for 28 days to form skin fibrosis. During the modeling period, the administration groups were given polypeptide drugs twice a day for treatment. After modeling, the mice were killed on the next day, and the skin tissue of the mouse back was taken to detect the content of HYP in the skin tissue. [table]

[6] = system: Mycoplasma pneumoniae; test: Mouse pneumonia model, mycoplasma pneumonia; assay type: in vivo, BALB/C mice; design: unit not given here; settings: nasal drip, average values + standard deviation
Excerpt: as §1

[7] = system: protozoa; test: Mouse pneumonia model, protozoal pneumonia; assay type: in vivo, BALB/C mice; design: unit not given here; settings: nasal drip, average values + standard deviation
Excerpt: as §1

[8] = system: adenovirus; test: Mouse pneumonia model, viral pneumonia; assay type: in vivo, BALB/C mice; design: unit not given here; settings: nasal drip, average values + standard deviation
Excerpt: as §1

[9] = system: pneumonia fungi; test: Mouse pneumonia model, fungal pneumonia; assay type: in vivo, BALB/C mice; design: unit not given here; settings: nasal drip, average values + standard deviation
Excerpt: as §1

[10] = system: SD rats with renal fibrosis; test: Renal fibrosis model (ureter ligation); assay type: in vivo; settings: 6 mg/kg s.c. twice a day, 14 days
Description: Clean grade male SD rats, purchased from Nanjing Qinglong Mountain Animal Farm, and weighed 180-200 g at the time of purchase, 190-210 g at the beginning of modeling, and 180-200 g at the beginning of administration.
A renal fibrosis animal model was established. SD rats were anesthetized with 4% chloral hydrate, injected with 1 mL/100 g intraperitoneally, fixed to an operation board, and sterilized in an operation area for later use. […] Muscular layers and abdominal walls were sewed layer by layer, the suture was disinfected with alcohol. After SD rats woke up, the rats were put into a cage for feeding. In the blank group, ureter was not ligated, and other steps were the same.
Then, the animals fell into a blank group, a model group, and polypeptide administration groups, with 10 animals in each group, and the administration was started on the second day after the operation, and was performed for 14 days. After administration for 14 days, blood was taken and supernatant was taken to detect the content of TGF-β1 in serum.

[11] = system: Chlamydia pneumoniae; test: Mouse pneumonia model, chlamydia pneumonia; assay type: in vivo, BALB/C mice; design: unit not given here; settings: nasal drip, average values + standard deviation
Excerpt: as §1

[12] = system: multiple pulmonary infections; test: Mouse pneumonia model, pneumonia caused by pulmonary infections; assay type: in vivo, BALB/C mice; design: unit not given here; settings: nasal drip, average values + standard deviation
Excerpt: as §1

[13] = bleomycin-induced pulmonary fibrosis

Q: `COc1cc2c(c(OC)c1OC)-c1ccc(OC)c(=O)cc1[C@@H](NC(C)=O)CC2` [Colchicine, reference compound] was tested. Which “content of ALT in serum, difference from model group” value [1] did it give?
A: significantly lower than those in the model group

Q: And the “content of AST in serum, difference from model group” value (from here on “content of AST in serum, difference”) [1]?
A: highly significantly different from the model group (** P<0.01)

Q: And the “content of HYP in the liver tissue, difference from model group” value [1]?
A: highly significantly different from the model group (*** P<0.001)

Q: What does the source list for `COC(=O)c1ccc2c(c1)NC(=O)/C2=C(\Nc1ccc(N(C)C(=O)CN2CCN(C)CC2)cc1)c1ccccc1` [Nintedanib, reference compound]?
A: Survival rate (%) [2]: 85.7%; content of HYP in lung tissues, difference from model group [2, 13]: highly significantly different from the model group (** P<0.01); content of TGF-β1 in serum, difference from model group [2, 13]: highly significantly different from the model group (*** P<0.001)

Q: With “PRCWCGEGGGGIVRRADRAAVPGGGGRGD (cysteine pairing not given here) [Polypeptide III]” as the compound, how does the “Inhibitory effect on pulmonary infections: Bacterial pneumonia” value [3] read?
A: 47.29 ± 8.76

Q: And the “content of TGF-β1 in serum, difference from model group” value (from here on “content of TGF-β1 in serum, difference”) [4]?
A: highly significantly different from the model group (** P<0.01)

Q: What about the “content of HYP in the skin tissue, difference from model group” value [5] of the same compound?
A: highly significantly different from the model group (*P<0.05)

Q: What about the “Inhibitory effect on pulmonary infections: Mycoplasma pneumonia” value [6] of the same compound?
A: 43.93 ± 5.53

Q: What about the “Inhibitory effect on pulmonary infections: Protozoal pneumonia” value [7] of the same compound?
A: 64.29 ± 8.70

Q: And the “Inhibitory effect on pulmonary infections: Viral pneumonia” value [8]?
A: 67.49 ± 9.94

Q: And the “Inhibitory effect on pulmonary infections: Fungal pneumonia” value [9]?
A: 62.88 ± 5.94

Q: And the “content of TGF-β1 in serum, difference” value [10]?
A: highly significantly different from the model group (** P<0.01)

Q: And the “Survival rate (%)” value [2]?
A: 85.7%

Q: What about the “content of HYP in lung tissues, difference from model group” value [2, 13] of the same compound?
A: significantly different from the model group (*P<0.05)

Q: What about the “content of TGF-β1 in serum, difference” value [2, 13] of the same compound?
A: highly significantly different from the model group (*** P<0.001)

Q: And the “Inhibitory effect on pulmonary infections: Chlamydia pneumonia” value [11]?
A: 56.40 ± 5.49

Q: What about the “content of AST in serum, difference” value [1] of the same compound?
A: highly significantly different from the model group (*** P<0.001)

Q: And the “content of HYP in the liver tissue, difference from model group” value [1]?
A: highly significantly different from the model group (*** P<0.001)

Q: What about the “Inhibitory effect on pulmonary infections: Pneumonia caused by pulmonary infections” value [12] of the same compound?
A: 56.81 ± 3.13

Q: What does the source list for “PRCWRGEGGGGIAVVRRADRAPGGGGRGD [Polypeptide I]”?
A: Inhibitory effect on pulmonary infections: Bacterial pneumonia [3]: 34.83 ± 7.95; content of TGF-β1 in serum, difference from model group [4]: highly significantly different from the model group (** P<0.01); content of HYP in the skin tissue, difference from model group [5]: highly significantly different from the model group (** P<0.01); Inhibitory effect on pulmonary infections: Mycoplasma pneumonia [6]: 36.48 ± 5.55; Inhibitory effect on pulmonary infections: Protozoal pneumonia [7]: 48.16 ± 5.46; Inhibitory effect on pulmonary infections: Viral pneumonia [8]: 50.00 ± 6.84; Inhibitory effect on pulmonary infections: Fungal pneumonia [9]: 47.54 ± 9.68; content of TGF-β1 in serum, difference from model group [10]: highly significantly different from the model group (*** P<0.001); Survival rate (%) [2]: 85.7%; reduction of HYP in lung tissues compared with the positive drug ([2]; bleomycin-induced pulmonary fibrosis, comparison with Nintedanib): better effects than the positive drug; content of HYP in lung tissues, difference from model group [2, 13]: highly significantly different from the model group (*** P<0.001); content of TGF-β1 in serum, difference from model group [2, 13]: highly significantly different from the model group (*** P<0.001); Inhibitory effect on pulmonary infections: Chlamydia pneumonia [11]: 37.18 ± 7.46; content of AST in serum, difference from model group [1]: highly significantly different from the model group (*** P<0.001); content of HYP in the liver tissue, difference from model group [1]: highly significantly different from the model group (*** P<0.001); Inhibitory effect on pulmonary infections: Pneumonia caused by pulmonary infections [12]: 47.52 ± 7.88

Q: Which “Inhibitory effect on pulmonary infections: Bacterial pneumonia” value [3] does the source give for “PRCYCGEGGGGIVRRADRAAVPGGGGRGD (cysteine pairing not given here) [Polypeptide IV]” here?
A: 43.69 ± 8.66

Q: And the “content of TGF-β1 in serum, difference” value [4]?
A: highly significantly different from the model group (*P<0.05)

Q: What about the “content of HYP in the skin tissue, difference from model group” value [5] of the same compound?
A: highly significantly different from the model group (*P<0.05)

Q: And the “Inhibitory effect on pulmonary infections: Mycoplasma pneumonia” value [6]?
A: 41.20 ± 7.30

Q: And the “Inhibitory effect on pulmonary infections: Protozoal pneumonia” value [7]?
A: 62.16 ± 3.28

Q: What about the “Inhibitory effect on pulmonary infections: Viral pneumonia” value [8] of the same compound?
A: 70.33 ± 9.27

Q: And the “Inhibitory effect on pulmonary infections: Fungal pneumonia” value [9]?
A: 53.22 ± 4.14

Q: And the “content of TGF-β1 in serum, difference” value [10]?
A: highly significantly different from the model group (*** P<0.001)

Q: And the “Survival rate (%)” value [2]?
A: 92.9%

Q: And the “content of HYP in lung tissues, difference from model group” value [2, 13]?
A: highly significantly different from the model group (** P<0.01)

Q: And the “content of TGF-β1 in serum, difference” value [2, 13]?
A: highly significantly different from the model group (** P<0.01)

Q: And the “Inhibitory effect on pulmonary infections: Chlamydia pneumonia” value [11]?
A: 45.86 ± 5.22

Q: And the “content of AST in serum, difference” value [1]?
A: highly significantly different from the model group (*** P<0.001)

Q: And the “content of HYP in the liver tissue, difference from model group” value [1]?
A: highly significantly different from the model group (*** P<0.001)

Q: What about the “Inhibitory effect on pulmonary infections: Pneumonia caused by pulmonary infections” value [12] of the same compound?
A: 50.99 ± 6.88

Q: What does the source list for Penicillin [reference compound]?
A: Inhibitory effect on pulmonary infections: Bacterial pneumonia [3]: 37.05 ± 4.35; Inhibitory effect on pulmonary infections: Mycoplasma pneumonia [6]: 39.78 ± 5.23; Inhibitory effect on pulmonary infections: Protozoal pneumonia [7]: 40.34 ± 3.02; Inhibitory effect on pulmonary infections: Viral pneumonia [8]: 48.07 ± 2.07; Inhibitory effect on pulmonary infections: Fungal pneumonia [9]: 36.87 ± 2.82; Inhibitory effect on pulmonary infections: Chlamydia pneumonia [11]: 32.57 ± 3.13; Inhibitory effect on pulmonary infections: Pneumonia caused by pulmonary infections [12]: 39.56 ± 4.35

From patent US12398196B2, “Fused polypeptide with multifunctional activities and use thereof” (NANJING ANJI BIOLOGICAL TECHNOLOGY CO., LTD., priority 2019, dated 2025)
